Common to all, as to assay: NCI anticancer screen, dose series, 48 h
For assay [1], the system named is UACC-257.
In assay [2] the test system is 786-0.
Assay [3] concerns M14.
The subject of assay [4] is PC-3.
For assay [5], the system named is UACC-62.
In assay [6] the test system is HL-60.
The test system of assay [7] is NCI-H460.
Assay [8] deals with SF-295.
The subject of assay [9] is UO-31.
Assay [10] has as its system Malme-3M.
In assay [11] the test system is CAKI-1.
The test system of assay [12] is SK-OV-3.
In assay [13] the test system is SF-539.
Assay [14] has as its system OVCAR-4.
The subject of assay [15] is KM12.
The test system of assay [16] is K562.
The test system of assay [17] is SK-MEL-2.
Assay [18] deals with HCC 2998.

“And” between values parts separate entries of the source, which are not always exact repeats. Equal entries are not always repeated.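 Grown in 96-well plates, cells were treated for 48 hours with each compound at five concentrations. Insufficient inhibition: endpoint recorded as highest concentration tested. GI50 marks 50% less growth.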 The source made the active and inactive calls. No stated cut-off is given here; in the data, active = GI50 up to about 1.1 µM and inactive = higher. Where only a bound is given, the exact number is not on record here.

Turning to `O=C(O)C(Cc1ccccc1)Cc1ccccc1`, the GI50 in assay [1], in assay [2], in assay [3], in [4], in assay [5] and in assay [6] was > 100 µM (inactive) each time. Moreover, the GI50 in assay [7], in assay [8], in assay [9], in assay [10], in assay [11] and in assay [12] was > 100 µM (inactive) each time. In addition, the GI50 in assay [13], in assay [14], in assay [15], in assay [16] and in assay [17] was > 100 µM (inactive) each time.
Take `CSC1NC(c2ccc(Cl)cc2)=C(C#N)C(=O)N1C1OCC(OC(C)=O)C(OC(C)=O)C1OC(C)=O` (stereo not given): the GI50 in [1], in assay [2], in assay [3], in [4], in [5] and in [7] was > 100 µM (inactive) throughout. The GI50 is > 100 µM (inactive) in [8]; > 100 µM (inactive) in [18]; 53.3 µM (inactive) in assay [9]; > 100 µM (inactive) in assay [10]; > 100 µM (inactive) in [11]; > 100 µM (inactive) in [12]. Also, the GI50 in [13] was 67.3 µM (inactive); in [14] it was > 100 µM (inactive); in assay [15], > 100 µM (inactive); in assay [16], > 100 µM (inactive).
As to `CC1C(c2ccc(Cl)cc2)c2cc3c(cc2OC1N1CCOCC1)OCO3` (stereo not given), the GI50 was 86.1 µM (inactive) in assay [1]; 56.8 µM (inactive) in assay [2]; 85.3 µM (inactive) in assay [3]; 67.3 µM (inactive) in assay [4]; 74 µM (inactive) in assay [5]; > 100 µM (inactive) in [7]. Further, the GI50 in assay [8] was 31.8 µM (inactive); in assay [18] it was > 100 µM (inactive); in assay [9], 54.3 µM (inactive); in [11], 31.8 µM (inactive); in assay [13] it was 45 µM (inactive); in assay [15] it was > 100 µM (inactive). Moreover, the GI50 is > 100 µM (inactive) in assay [16] and 69.7 µM (inactive) in assay [17].
Take `O=C(O)c1cccc(CN2CCCCC2)c1`: the GI50 in [1], in [2], in [3], in [4], in assay [5] and in assay [7] was > 100 µM (inactive) in each case. In addition, the GI50 in assay [8], in assay [18], in assay [9], in assay [10], in [11] and in assay [12] was > 100 µM (inactive) each time. The GI50 in [14], in assay [15], in assay [16] and in [17] was > 100 µM (inactive) throughout.
As to `C=C1C(=O)OC2CC1C(OC(C)=O)C/C(C)=C/CC/C(C)=C\CCC2(C)O` (stereo not given), the GI50 was 3.03 µM (inactive) and 5.11 µM (inactive) in assay [1]; 3.24 µM (inactive) and 2.6 µM (inactive) in assay [2]; 5.83 µM (inactive) and 6.1 µM (inactive) in assay [3]; 1.23 µM (inactive) and 655 nM (active) in assay [6]; 2.11 µM (inactive) and 3.41 µM (inactive) in assay [7]; 21.3 µM (inactive) and 17.2 µM (inactive) in assay [8]. Further, the GI50 was 7.69 µM (inactive) and 4.74 µM (inactive) in [18]; 3.24 µM (inactive) and 6.12 µM (inactive) in [9]; 3.25 µM (inactive) in assay [10]; 4.34 µM (inactive) and 2.96 µM (inactive) in assay [11]; 19.5 µM (inactive) and 24.5 µM (inactive) in assay [12]; 3.48 µM (inactive) and 5.43 µM (inactive) in assay [13]. The GI50 was 6.35 µM (inactive) and 5.73 µM (inactive) in assay [14]; 1.39 µM (inactive) and 2.54 µM (inactive) in assay [16].
For the compound `O=C1CCCc2ccc3c(c21)CC1(Cc2ccccc2C1)C3`, the GI50 in assay [1] was 21.4 µM (inactive); in assay [2], 29.1 µM (inactive); in assay [3] it was 34.6 µM (inactive); in assay [4], 98.4 µM (inactive); in [5], 26.1 µM (inactive); in assay [8], 24.2 µM (inactive). Besides, the GI50 in [18] was 41.5 µM (inactive); in assay [9], 50.1 µM (inactive); in assay [10], 33.2 µM (inactive); in [12], 53.5 µM (inactive); in assay [13], 31.6 µM (inactive); in assay [14] it was 17.2 µM (inactive). Also, the GI50 in [15] is 38.9 µM (inactive); in assay [16] it was 10.8 µM (inactive); in [17], > 100 µM (inactive).
Consider `CCOC(=O)/C(C(N)=O)=C(O)/C(O)=C/C(=O)c1ccc(Cl)cc1`, for which the GI50 was 16 µM (inactive) in assay [1]; 17.2 µM (inactive) in assay [2]; 21.2 µM (inactive) in assay [3]; 19.1 µM (inactive) in [4]; 20.6 µM (inactive) in assay [5]; 16 µM (inactive) in assay [7]. Further, the GI50 in assay [8] was 29.2 µM (inactive); in assay [9], 18.6 µM (inactive); in assay [10] it was 17.9 µM (inactive); in assay [11], 24.1 µM (inactive); in [12] it was 20.6 µM (inactive); in [14] it was 34.4 µM (inactive). The GI50 in [15] was 17.3 µM (inactive); in assay [17], 18.5 µM (inactive).
On to `O=C1/C(=C/c2ccco2)NC(=S)N1CN1CCOCC1`, for which the GI50 in assay [1], in assay [2], in [3], in assay [4], in assay [5] and in assay [8] was > 100 µM (inactive) throughout. Also, the GI50 in [9], in assay [12], in assay [14], in [15], in assay [16] and in [17] was > 100 µM (inactive) each time.
Regarding `C=C1CC(C#N)(C#N)[C@@H]2CC3CCCC3[C@H]12.C=C1CC(C#N)(C#N)[C@H]2C3CCCC3C[C@@H]12` (stereo not given in full), the GI50 in [2] was 10.5 µM (inactive); in assay [3], 15.6 µM (inactive); in assay [4], 30.1 µM (inactive); in assay [5], 25.9 µM (inactive); in [6], 20.5 µM (inactive); in assay [7] it was 10 µM (inactive). For the same compound, the GI50 in assay [8] is 18.3 µM (inactive); in assay [9], 20.7 µM (inactive); in assay [12] it was 25.4 µM (inactive); in assay [13] it was 19.9 µM (inactive); in [15] it was 20.1 µM (inactive); in assay [16] it was 16.8 µM (inactive).

These data come from ChEMBL document CHEMBL1201862, “PubChem BioAssay data set” (2004).
